Source: patent US11389415B2, “Methods of regulating cannabinoid receptor activity-related disorders and diseases” (The United States of America as represented by the …, priority 2012, dated 2022)

Assays:
CYP2D6 = molecular target: T1, CYP2D6 (Homo sapiens, UniProt P10635); assay: CYP inhibition in human liver microsomes, CYP2D6; assay type: in vitro ADME; conditions: 10 μM, 20 minutes, 37° C.
T1 construct: from tissue; host or cells: human liver microsomes
Procedure: Incubations containing known CYP inhibitors were also included as positive controls. Formation of the model substrate metabolites was measured by LC-MS/MS and compared to control incubations (incubation of substrates with microsomes and cofactors, no test articles or inhibitors). CYP activity in presence of test compound (MNF) that was less than 70% of control was considered significant. MNF (10 μM) inhibited CYP2D6 and CYP3A4 to less than 70% of the control. Further, the primary metabolite was determined to be O-demethylated-MNF. These studies indicate that MNF alters the metabolism of other drugs or endogenous compounds that are substrates for CYP2D6 and/or CYP3A4 isoforms, when present in the plasma or liver at 10 μM or higher.

[1] = tested on: Sox4, Olig1, Galnt3, Cdkn3, Ccna2, Bub1b mRNA; assay: qRT-PCR of selected genes in C6 xenograft tumors; assay type: in vivo, mouse; conditions: MNF-treated mice
Procedure: Total RNA extraction, cDNA synthesis and qRT-PCR analysis. Total RNA (including the DNase treatment step) was isolated from frozen tumor tissues using the RNeasy mini kit (Qiagen, Valencia, Calif.). RNA concentration and quality was measured using the NanoDrop spectrophotometer (NanoDrop Technologies, Wilmington, Del.). Subsequently, 2 μg total RNA was reverse-transcribed to cDNA using the qSCRIPT™ cDNA SuperMix (Quanta Biosciences, Gaithersburg, Md.). Quantitative real-time PCR (qRT-PCR) reactions were performed to validate the expression of 6 genes that were selected from the microarray analysis. The reactions were carried out with SYBR® Green PCR master mix on an ABI Prism 7300 sequence detection system (Applied Biosystems) using commercially available target probes for Sox4, Olig1, Galnt3, Cdkn3, Ccna2, and Bub1b (PrimeTime qPCR Assays and Primers, IDT DNA Technologies, Coralville, Iowa). The data was analyzed using the 2-ΔΔCt method with Gapdh and vehicle-treated tumors as internal controls. Controls consisting of reaction mixture without cDNA were negative in all runs.

HepG2 and PANC-1 cells = assay: Cell morphology and EGFR expression in HepG2 and PANC-1 cells; assay type: cell-based, human
Procedure: FIGS. 26A-26C show MNF interferes with inducible changes in cell morphology and expression of EGFR. […] White arrows show individual cells with filopodia. FIG. 26C, Cell lysates were prepared from similar studies and immunoblotted for EGFR. The membranes were reprobed for Hsp90, which served as a loading control.
Western blot analysis. For detection of intracellular signaling proteins, cells were lysed in radioimmunoprecipitation buffer containing EGTA and EDTA (Boston BioProducts, Ashland, Mass.). The lysis buffer contained a protease inhibitor cocktail (Sigma-Aldrich) and phosphatase inhibitor cocktail (Calbiochem, San Diego, Calif.). Equivalent amount of proteins (14 and 54 μg/well for PANC-1 and HepG2 cells, respectively) were separated on 4 to 12% precast gels (Invitrogen, Carlsbad, Calif.) using SDS-polyacrylamide gel electrophoresis under reducing conditions and then electrophoretically transferred onto polyvinylidene fluoride membrane (Invitrogen). Western blots were performed according to standard methods, which involved blocking in 5% non-fat milk and incubated with the antibody of interest, followed by incubation with a secondary antibody conjugated with the enzyme horseradish perodixase. The detection of immunoreactive bands was performed by chemiluminescence using the ECL Plus Western Blotting Detection System (GE Healthcare, Piscataway, N.J.). The quantification of bands was done by volume densitometry by using ImageJ software. The rabbit polyclonal antibodies against EGFR were obtained from Cell Signaling Technology, Inc. (Beverly, Mass.) and the monoclonal anti-Hsp90 was purchased from Santa Cruz Biotechnology, Inc. (Santa Cruz, Calif.).

[2] = In vitro metabolic stability, rat liver microsomes; assay type: in vitro ADME; conditions: rat liver microsomes and cofactors, 37° C., 0-60 minutes
Procedure: FIG. 10 presents the data from the in vitro metabolic stability study in which MNF was incubated (in duplicate) with active and heat-inactivated human (HLM) and rat (RLM) liver microsomes and cofactors at 37° C. Aliquots were removed at 0, 15, 30 and 60 minutes and the amount of test compound (MNF) remaining at each time point was determined by LC-MS/MS.

U87MG cells = assay: [3H]-Thymidine incorporation in U87MG cells; assay type: cell-based, human; conditions: compound alone
Procedure: Maintenance and Treatment of Cell Lines. Human HepG2 hepatocarcinoma cells and human U87MG glioma cells (ATCC, Manassas, Va.) were maintained in EMEM medium supplemented with 1% L-glutamine, 1% sodium pyruvate, 1% penicillin/streptomycin, and 10% FBS (Hyclone, Logan, Utah). The human 1321N1 astrocytoma cells (European Collection of Cell Cultures, Sigma-Aldrich) were cultured in Dulbecco's modified Eagle's medium supplemented with 10% FBS and penicillin/streptomycin. All cell lines were cultured at 37° C. in 5% CO2, and the medium was replaced every 2-3 days.
Cells were seeded in 12-well plates at approximately 50,000 cells/well and incubated at 37° C. After 24 hours, the wells were rinsed with PBS and replaced with serum-free medium containing the appropriate concentration of the test compounds. After another 24-hour incubation at 37° C., 1 μCi of [^3H]-thymidine was added to each well and incubated at 37° C. for 16 hours. [^3H]-Thymidine incorporation into DNA was monitored after the cells were washed twice with PBS and then lysed in 600 μL of 0.1N NaOH for 30 minutes with shaking. The lysate was then mixed with 3 mL of liquid scintillation cocktail (Beckman Coulter, Inc., Brea, Calif.), and radioactivity was measured by liquid scintillation counting using Beckman Coulter LS6000IC Scintillation Counter. Data are shown as CPM incorporated compared to the control cells.

HepG2 cells = assay: Scratch wound-healing assay, HepG2 cells; assay type: cell-based, human; conditions: HepG2, 1 μM
Procedure: Scratch assays. These assays were carried out essentially as described previously (Fiori et al., Endocrinology 150: 2551-2560, 2009). In brief, cells were seeded in 12-well nontreated polystyrene cell culture plates with flat bottom (Greiner Bio-One, Monroe, N.C.). Once the cells became confluent, a scratch wound was made with a pipette tip and pictured immediately (time 0). […] Cell migration was examined at 12, 24, 36, 48 hours and 12, 18, 24, 48 hours after scratch for the HepG2 and PANC-1 cells, respectively. Images of the same field were taken every 3 hours to determine the rate of cell migration. Images were captured on an Axiovert 200 inverted microscope (Carl Zeiss, Thornwood, N.Y.) mounted with an AxioCam HRc digital camera (Carl Zeiss) and the measurement of scratch area was performed with ImageJ 1.46s software (National Institutes of Health, Bethesda, Md.). Each study was performed in duplicate dishes and repeated at least twice.

GPR55 = GPR55 (Homo sapiens, UniProt Q9Y2T6); assay: Cellular uptake of TocriFluor T1117 in PANC-1 cells; conditions: MNF 1 μM
Procedure: Cellular uptake of TocriFluor T1117, a fluorescently labeled GPR55 agonist Cells were grown in 35-mm glass bottom culture dishes (MatTek Corp., Ashland, Mass., USA) for 48 hours until reaching ˜70% confluence. […] Cells were imaged with a Zeiss LSM 710 confocal microscope equipped with a temperature-controlled and humidified CO2 chamber and a definite focus system. […] The time-series function of the Zeiss Zen software was used to collect images with a 40×1.3 NA objective every 30 s for up to one hour, with all confocal settings remaining the same throughout the studies. Still images, movies and fluorescent intensity quantitation were obtained from these series using the Zeiss Zen software. Studies were repeated at least two to three times.

CAPAN = assay: tumor cell growth, CAPAN; conditions: read-out: IC50 (uM), CAPAN (Pancreatic C)

T1 sequence (P10635 whole entry): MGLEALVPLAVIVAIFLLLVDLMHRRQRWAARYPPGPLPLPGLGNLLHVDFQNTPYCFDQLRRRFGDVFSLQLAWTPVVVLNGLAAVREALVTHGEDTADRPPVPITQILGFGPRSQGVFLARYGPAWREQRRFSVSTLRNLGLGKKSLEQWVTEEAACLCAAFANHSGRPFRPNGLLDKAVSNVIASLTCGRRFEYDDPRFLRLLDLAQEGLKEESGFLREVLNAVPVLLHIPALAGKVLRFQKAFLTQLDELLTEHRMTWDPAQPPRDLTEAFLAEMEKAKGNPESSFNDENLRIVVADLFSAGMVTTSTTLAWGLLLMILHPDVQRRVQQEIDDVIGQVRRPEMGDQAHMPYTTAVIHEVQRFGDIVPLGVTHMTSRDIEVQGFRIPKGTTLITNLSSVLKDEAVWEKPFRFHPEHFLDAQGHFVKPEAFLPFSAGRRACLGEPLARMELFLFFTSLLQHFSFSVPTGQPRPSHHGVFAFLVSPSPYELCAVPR
GPR55, sequence (Q9Y2T6 whole entry): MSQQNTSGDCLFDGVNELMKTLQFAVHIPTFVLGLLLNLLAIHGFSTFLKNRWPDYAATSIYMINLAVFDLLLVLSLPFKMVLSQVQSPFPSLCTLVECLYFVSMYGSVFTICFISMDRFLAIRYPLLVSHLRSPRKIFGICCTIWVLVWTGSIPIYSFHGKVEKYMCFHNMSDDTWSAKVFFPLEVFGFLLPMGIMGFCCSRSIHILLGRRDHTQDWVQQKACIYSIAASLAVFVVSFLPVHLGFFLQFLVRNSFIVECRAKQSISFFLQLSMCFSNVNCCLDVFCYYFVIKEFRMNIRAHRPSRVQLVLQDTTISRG

COc1ccc(C[C@@H](C)NC[C@H](O)c2cc(O)cc(O)c2)c2ccccc12 [(R,R′)-MNF, (R,R′)-4′-methoxy-1-naphthylfenoterol]
CYP2D6 activity in presence of test compound (CYP2D6): less than 70 % of the control | mRNA expression by quantitative RT-PCR compared to control [1]: decreased the expression of Bub1b, Cdkn3 Ccna2, Olig1, Sox4, and Galnt3 | effect on O-1602-induced EGFR levels (HepG2 and PANC-1 cells; 1 μM pretreatment): MNF blocked this effect | effect on change in morphology induced by AM251 and O-1602 (HepG2 and PANC-1 cells; 1 μM pretreatment 30 minutes, agonists 5 μM 16 hours): rendered the cells refractory to the change in morphology induced by AM251 and O-1602 | metabolic stability, MNF levels [2]: greater decrease in MNF levels | effect on cellular proliferation (U87MG cells): potent inhibition of cellular proliferation | cell motility, compound alone (HepG2 cells): had no effect on the motility of HepG2 cells | effect on AM251-mediated increase in cell motility (HepG2 cells; AM251 1 μM): significant inhibitory effect toward AM251-mediated increase in cell motility | effect on wound closure evoked by O-1602 (HepG2 cells; O-1602 1 μM): absent in HepG2 cells | T1117 incorporation (GPR55): potent inhibitor of T1117 incorporation in PANC-1 cells

COc1cccc2c1C(=O)c1c(O)c3c(c(O)c1C2=O)C[C@@](O)(C(=O)CO)C[C@@H]3O[C@H]1C[C@H](N)[C@H](O)[C@H](C)O1 [Doxorubicin, reference compound]
IC50 (CAPAN): 0.23 µM
